Test systems include SK-MEL-5 melanoma; UACC-257 melanoma; OVCAR-3 ovarian; KM12 colon; BT-549 breast; MDA-N; IGROV1 ovarian; SN12C renal; HCC-2998 colon; SW-620 colon; UACC-62 melanoma; CCRF-CEM leukemia; HS 578T breast; COLO 205 colon; MALME-3M melanoma; TK-10 renal; NCI-H460 lung; HCT-116 colon; OVCAR-4 ovarian; HL-60(TB) leukemia.
What all share (assay): DTP human tumour cell line panel, 48 h

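Results reflect a 48-hour exposure of cells in 96-well plates to compound at five concentrations. The concentration for full growth arrest is given as TGI.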

On to `O=C1C2CCCCC2C(=O)N1n1c(-c2ccccc2)n[nH]c1=O` (stereo unspecified), for which the TGI in the assay with SK-MEL-5 melanoma, with UACC-257 melanoma, with OVCAR-3 ovarian, with KM12 colon, with BT-549 breast and in the assay on MDA-N was above 100 µM each time. In addition, the TGI in the assay with IGROV1 ovarian, with SN12C renal, with HCC-2998 colon, with SW-620 colon, in the assay on UACC-62 melanoma and with CCRF-CEM leukemia was above 100 µM each time. The TGI with HS 578T breast, in the assay with COLO 205 colon, with MALME-3M melanoma, in the assay on TK-10 renal, in the assay with NCI-H460 lung and in the assay on HCT-116 colon was above 100 µM in each case. The TGI (commonly the concentration giving total growth inhibition) in the assay with OVCAR-4 ovarian was above 100 µM.

For the molecule `Cc1ccc(OCC2OC(n3cnc4nc(Nc5ccc(Cl)c(Cl)c5)nc(Cl)c43)CC2Oc2ccc(C)cc2)cc1` (stereo unspecified), the TGI in the assay with SK-MEL-5 melanoma, with UACC-257 melanoma, in the assay on OVCAR-3 ovarian, with KM12 colon, with BT-549 breast and in the assay with MDA-N was above 100 µM in each case. The TGI in the assay on IGROV1 ovarian, in the assay with SN12C renal, with HCC-2998 colon, with SW-620 colon, with UACC-62 melanoma and in the assay on CCRF-CEM leukemia was above 100 µM throughout. For the same molecule, the TGI in the assay with HS 578T breast, in the assay with COLO 205 colon, in the assay with MALME-3M melanoma, with TK-10 renal, in the assay with NCI-H460 lung and in the assay with HCT-116 colon was above 100 µM in each case. Also, in the assay on OVCAR-4 ovarian, the TGI is above 100 µM.

For the molecule `CC(C)CCNC(=O)C(CC(C)C)NC(=O)[C@H]1O[C@@H]1C(=O)O` (stereo partly specified), the TGI in the assay on SK-MEL-5 melanoma, in the assay with UACC-257 melanoma, in the assay on OVCAR-3 ovarian, in the assay on KM12 colon, with BT-549 breast and with MDA-N was above 100 µM each time. Moreover, the TGI in the assay on IGROV1 ovarian, with SN12C renal, with HCC-2998 colon, in the assay with SW-620 colon, in the assay on UACC-62 melanoma and with CCRF-CEM leukemia was above 100 µM throughout. In addition, the TGI in the assay on HS 578T breast, in the assay with COLO 205 colon, in the assay on MALME-3M melanoma, in the assay on NCI-H460 lung, in the assay on HCT-116 colon and with OVCAR-4 ovarian was above 100 µM in each case.

For the molecule `O=c1oc2ccccc2c(O)c1C(c1cnc2ccccc2c1)c1c(O)c2ccccc2oc1=O`, the TGI with SK-MEL-5 melanoma is above 100 µM; with HL-60(TB) leukemia, 90 µM; with UACC-257 melanoma it was above 100 µM; with OVCAR-3 ovarian, above 100 µM; in the assay with KM12 colon, above 100 µM; in the assay with BT-549 breast it was 68 µM. Besides, the TGI is 69.5 µM with MDA-N; above 100 µM in the assay on IGROV1 ovarian; 76.6 µM in the assay on SN12C renal; above 100 µM with SW-620 colon; 35.4 µM in the assay with UACC-62 melanoma; above 100 µM with CCRF-CEM leukemia. In addition, the TGI is 80.6 µM in the assay on HS 578T breast; above 100 µM in the assay with COLO 205 colon; above 100 µM in the assay with MALME-3M melanoma; above 100 µM in the assay with TK-10 renal; above 100 µM in the assay on NCI-H460 lung; above 100 µM with HCT-116 colon. Further, the TGI in the assay with OVCAR-4 ovarian was above 100 µM.

On to `O=c1[nH]c(N/N=C\C(=N/Nc2nc3ccccc3c(=O)[nH]2)C(O)C(O)C(O)CO)nc2ccccc12` (stereo unspecified), for which the TGI in the assay on SK-MEL-5 melanoma, in the assay on HL-60(TB) leukemia, in the assay on UACC-257 melanoma, with OVCAR-3 ovarian, in the assay on KM12 colon and in the assay on BT-549 breast was above 100 µM throughout. Moreover, the TGI in the assay on MDA-N, in the assay on IGROV1 ovarian, in the assay with SN12C renal, in the assay with SW-620 colon, in the assay on UACC-62 melanoma and with CCRF-CEM leukemia was above 100 µM each time. The TGI with HS 578T breast, with COLO 205 colon, in the assay on TK-10 renal, in the assay on NCI-H460 lung and in the assay on HCT-116 colon was above 100 µM in each case.

Regarding `CC(C)(Oc1ccc(Cl)cc1)C(=O)N(C(=O)N1CCCCC1)c1ccccc1`, the TGI is 24.2 µM in the assay on SK-MEL-5 melanoma; 21 µM in the assay with HL-60(TB) leukemia; 75.1 µM in the assay with OVCAR-3 ovarian; 41.2 µM with KM12 colon; 30.4 µM in the assay with BT-549 breast; above 100 µM in the assay on MDA-N. Besides, the TGI is 22.3 µM in the assay on IGROV1 ovarian; 47 µM in the assay with SN12C renal; above 100 µM in the assay on SW-620 colon; 27.5 µM in the assay on UACC-62 melanoma; above 100 µM in the assay with CCRF-CEM leukemia; 58.5 µM with HS 578T breast. The TGI was above 100 µM in the assay on COLO 205 colon, 85.2 µM in the assay with MALME-3M melanoma and 21.2 µM in the assay on HCT-116 colon.

For the molecule `CC[C@]12C=CCN3CCC4(c5cc([C@@]6(C(=O)OC)CC7CN(CCc8c6[nH]c6ccccc86)C[C@@H]6CCCC[C@H]76)c(OC)cc5N(C)C4[C@](O)(C(=O)OC)C1OC(C)=O)[C@@H]32` (stereo partly specified), the TGI is below 0.01 µM with SK-MEL-5 melanoma; 21.2 µM in the assay with BT-549 breast; below 0.01 µM with MDA-N; 18.3 µM in the assay with SN12C renal; below 0.01 µM in the assay on HCC-2998 colon; 16 µM in the assay with SW-620 colon. The TGI with UACC-62 melanoma was 17.8 µM; in the assay with CCRF-CEM leukemia it was above 37.1 µM; with HS 578T breast, below 0.01 µM; in the assay on COLO 205 colon, below 0.01 µM; with MALME-3M melanoma it was 4.95 µM; in the assay on TK-10 renal it was 21.8 µM. Also, the results for the TGI in the assay with NCI-H460 lung, in the assay with HCT-116 colon and in the assay on OVCAR-4 ovarian were 0.0425 µM, 1.73 µM and 19.3 µM, respectively.

With `O=[N+]([O-])c1ccc(N/N=C2/CC3=C2CCCCCCCCCC3)c([N+](=O)[O-])c1`, the TGI in the assay on SK-MEL-5 melanoma, in the assay with UACC-257 melanoma, in the assay on OVCAR-3 ovarian, in the assay on KM12 colon, in the assay with BT-549 breast and with MDA-N was above 100 µM throughout. Further, the TGI with IGROV1 ovarian, in the assay on SN12C renal, in the assay on HCC-2998 colon, in the assay on SW-620 colon, in the assay with UACC-62 melanoma and with CCRF-CEM leukemia was above 100 µM in each case. Further, the TGI with HS 578T breast, with COLO 205 colon, in the assay with MALME-3M melanoma, in the assay on TK-10 renal, with NCI-H460 lung and in the assay on HCT-116 colon was above 100 µM each time. In the assay with OVCAR-4 ovarian, the TGI was above 100 µM.

`COc1ccc2nc3c([N+](=O)[O-])ccc4c3c(c2c1)NCCN4CCN(C)C`: the TGI with SK-MEL-5 melanoma was found to be 2.08 µM; in the assay on UACC-257 melanoma it was 4.58 µM; in the assay with OVCAR-3 ovarian it was 2.4 µM; in the assay with KM12 colon, 1.46 µM; with BT-549 breast, 3.39 µM; in the assay on MDA-N, 1.99 µM. The TGI in the assay with IGROV1 ovarian came out at 3.15 µM; in the assay on SN12C renal it was 3.28 µM; with SW-620 colon, 1.98 µM; in the assay with UACC-62 melanoma, 1.96 µM; with CCRF-CEM leukemia, 4 µM; in the assay on HS 578T breast it was 3.91 µM. Also, the TGI in the assay on MALME-3M melanoma was 1.56 µM; with TK-10 renal it was 4.75 µM; in the assay on NCI-H460 lung, 1.46 µM; in the assay with HCT-116 colon, 1.3 µM; in the assay with OVCAR-4 ovarian it was 0.697 µM.

As to `CON(C)C(=O)[C@H]1C[C@@]1(C)CO`, the TGI in the assay on SK-MEL-5 melanoma, in the assay on UACC-257 melanoma, in the assay on OVCAR-3 ovarian, with KM12 colon, in the assay on BT-549 breast and with MDA-N was above 100 µM in each case. In addition, the TGI with IGROV1 ovarian, in the assay on SN12C renal, in the assay on HCC-2998 colon, with SW-620 colon, with UACC-62 melanoma and with CCRF-CEM leukemia was above 100 µM throughout. The TGI in the assay on HS 578T breast, in the assay on COLO 205 colon, with MALME-3M melanoma, in the assay with TK-10 renal, in the assay with NCI-H460 lung and in the assay on HCT-116 colon was above 100 µM throughout. For the same molecule, in the assay with OVCAR-4 ovarian, the TGI is above 100 µM.

On to `COc1ccc2[nH]c3c(c2c1)CC(=O)N1CCCC(CC3O)C1` (stereo unspecified), for which the TGI in the assay on SK-MEL-5 melanoma, with UACC-257 melanoma, with KM12 colon, in the assay on BT-549 breast, with MDA-N and with IGROV1 ovarian was above 100 µM in each case. Besides, the TGI in the assay on SN12C renal, in the assay with HCC-2998 colon, in the assay with SW-620 colon, in the assay on UACC-62 melanoma, in the assay with HS 578T breast and in the assay on COLO 205 colon was above 100 µM in each case. For the same molecule, the concentration for total growth inhibition (TGI) with MALME-3M melanoma, in the assay on TK-10 renal, with NCI-H460 lung, in the assay with HCT-116 colon and in the assay with OVCAR-4 ovarian was above 100 µM each time.

With `C/C(N)=C/C(=O)c1[nH]c(C(=O)O)cc1C1CCN(Cc2ccccc2)C1=O` (stereo unspecified), the TGI in the assay on SK-MEL-5 melanoma is 33.8 µM; with UACC-257 melanoma, 78.5 µM; with OVCAR-3 ovarian, 55.6 µM; in the assay on KM12 colon it was above 100 µM; in the assay on BT-549 breast it was 74.6 µM; with MDA-N, 69.7 µM. Moreover, the TGI with IGROV1 ovarian is 94.1 µM; in the assay with HCC-2998 colon, above 100 µM; in the assay with SW-620 colon, above 100 µM; with UACC-62 melanoma it was 55.6 µM; with HS 578T breast, above 100 µM; in the assay with COLO 205 colon it was 65.1 µM. Besides, the TGI in the assay on MALME-3M melanoma was 50.2 µM; in the assay on TK-10 renal, above 100 µM; with NCI-H460 lung it was above 100 µM; with HCT-116 colon, 63.8 µM; in the assay with OVCAR-4 ovarian it was above 100 µM.
